# Test results published in US6444668B1 (Wyeth, priority 1999, dated 2002).
row,melting point,Structure (SMILES)
1,240 to 242 °C,CC1(C)OC(=O)Nc2ccc(-c3cccc(C#C[Si](C)(C)C)c3)cc21
2,297 to 298 °C,CC1(C)OC(=O)Nc2ccc(-c3cc([N+](=O)[O-])cc([N+](=O)[O-])c3)cc21
3,164 to 165 °C,"COc1cccc(-c2ccc3c(c2)C(C)(C)OC(=O)N3)c1 [Example 6, 6-(3-Methoxy-phenyl)-4,4dimethyl-1,4-dihydro-benzo[d][1,3]-oxazin-2-one]"
4,181 to 182 °C,"CC1(C)OC(=O)Nc2ccc(-c3ccccc3Cl)cc21 [Example 7, 6-(2-Chloro-phenyl)-4,4-dimethyl-1,4-dihydro-benzo[d][1,3]oxazin-2-one]"
5,255 to 257 °C,"CC1(C)OC(=O)Nc2ccc(-c3ccc(Cl)cc3)cc21 [Example 8, 6-(4-Chloro-phenyl)-4,4-dimethyl-1,4-dihydro-benzo[d][1,3]-oxazin-2-one]"
6,155 to 156 °C,"CC1OC(=O)Nc2ccc(-c3cccc(Cl)c3)cc21 (stereo not shown) [Example 9, 6-(3-Chloro-phenyl)-4-methyl-1,4-dihydro-benzo[d][1,3]oxazin-2-one]"
7,146 to 148 °C,"CCC1OC(=O)Nc2ccc(-c3cccc(Cl)c3)cc21 (stereo not shown) [Example 10, 6-(3-Chloro-phenyl)-4-ethyl-1,4-dihydro-benzo[d][1,3]oxazin-2-one]"
8,177 to 178 °C,"O=C1Nc2ccc(-c3cccc(Cl)c3)cc2C(c2ccccc2)O1 (stereo not shown) [Example 11, 6-(3-Chloro-phenyl)-4-phenyl-1,4-dihydro-benzo [d][1,3]oxazin-2-one]"
9,244 to 245 °C,"CC1(C)OC(=O)Nc2ccc(-c3cccc([N+](=O)[O-])c3)cc21 [Example 13, 4,4Dimethyl6-(3-nitrophenyl)-1,4dihydrobenzo[d][1,3]oxazin-2-one]"
10,150 to 151 °C,"CCC1(CC)NC(=O)Oc2ccc(-c3cccc(Cl)c3)cc21 [Example 25, 6-(3-Chlorophenyl)-4,4-diethyl-1,4-dihydrobenzo[d][3,1]oxazin-2-one]"
11,140 to 145 °C,"O=C1Nc2ccc(-c3cccc(Cl)c3)cc2C2(CCCC2)O1 [Example 31, 6-(3-Chlorophenyl)-spiro-[4H-3,1-benzoxazine-4,1′-cyclopentane]-2(1H)-one]"
12,245 to 246 °C,"O=C1Nc2ccc(-c3cccc([N+](=O)[O-])c3)cc2C2(CCCCC2)O1 [Example 32, 6-(3—Nitrophenyl)-spiro[4H-3,1-benzoxazine-4,1′-cyclohexan]-2(1H)-one]"
13,128 to 129 °C,"C=CCC1(C)OC(=O)Nc2ccc(-c3cccc(Cl)c3)cc21 (stereo not shown) [Example 36, 4-Allyl-6-(3-chlorophenyl)-4-methyl-1,4-dihydro-benzo[d][1,3]oxazin-2-one]"
14,179 to 180 °C,"CC1(c2ccccc2)OC(=O)Nc2ccc(-c3cccc(Cl)c3)cc21 (stereo not shown) [Example 39, 6-(3-Chlorophenyl)-4-methyl-4-phenyl-1,4dihydro-benzo[d][1,3]oxazin-2-one]"
15,187 to 188 °C,"CC1(Cc2ccccc2)OC(=O)Nc2ccc(-c3cccc(Cl)c3)cc21 (stereo not shown) [Example 40, 4-Benzyl-6-(3-chloro-phenyl)-4-methyl-1,4-dihydro-benzo[d][1,3]oxazin-2-one]"
16,158 to 159 °C,"CC1(C2CC2)OC(=O)Nc2ccc(-c3cccc(Cl)c3)cc21 (stereo not shown) [Example 41, 6(3-Chloro-phenyl)-4-cyclopropyl-4-methyl-1,4-dihydro-benzo [d][1,3]oxazin-2-one]"
17,178 to 179 °C,"CC#CC1(C2CC2)OC(=O)Nc2ccc(-c3cccc(Cl)c3)cc21 (stereo not shown) [Example 42, 6-(3-Chloro-phenyl)-4-cyclopropyl-4-propyn-1-yl-1,4-dihydro-benzo [d][1,3]oxazin-2-one]"
18,151 °C (dec.),"CC#CC1(C#CC)OC(=O)Nc2ccc(-c3cccc(Cl)c3)cc21 [Example 44, 6(3-Chloro-phenyl)-4,4dipropyn-1-yl-1,4dihydrobenzo[d][1,3]oxazin-2-one]"
19,157 to 158 °C,"CN1C(=O)OC(C)(C)c2cc(-c3cc(F)cc(Br)c3)ccc21 [Example 45, 6-(3-Bromo-5fluorophenyl)-1,4,4-trimethyl-1,4-dihydrobenzo[d][1,3]oxazin-2-one]"
20,167 to 168 °C,"COc1cccc(-c2ccc3c(c2)NC(=O)OC3(C)C)c1 [Example 49, 7-(3-Methoxy-phenyl)-4,4-dimethyl-1,4-dihydro-benzo[d][1,3]-oxazin-2-one]"
21,156 to 157 °C,"CC1(C)OC(=O)Nc2ccc(-c3cccc(C(=O)c4ccccc4)c3)cc21 [Example 51, 6-(3-Benzoyl-phenyl)-4,4-dimethyl-1,4dihydro-benzo[d][1,3]-oxazin-2-one]"
22,238 to 240 °C,"CC1(C)OC(=O)Nc2ccc(-c3cccc(-c4nnn[nH]4)c3)cc21 [Example 52, 4,4-Dimethyl-6-[3-(1H-tetrazol-5-yl)-phenyl]-1,4dihydrobenzo[d][1,3]oxazin-2-one]"

row,melting point,Structure (SMILES)
1,244 to 245 °C,"N#Cc1cc(-c2ccc3c(c2)C(C2CC2)(C2CC2)OC(=O)N3)cs1 [Example 53, 4-(4,4-Dicyclopropyl-2-oxo-1,4-dihydro-2H-benzo[d][1,3]oxazin-6yl)-thiophene-2-carbonitrile]"
2,214 to 216 °C,"CC1(C)OC(=O)Nc2ccc(-c3cc(Br)cc(OC(F)(F)F)c3)cc21 [Example 57, 6-(3-Bromo-5-trifluoromethoxy-Phenyl)-4,4-dimethyl-1,4-dihydrobenzo[d][1,3]-oxazin-2-one]"
3,227 to 228 °C,"CC1(C)OC(=O)Nc2ccc(-c3cc(C#N)cc(OC(F)(F)F)c3)cc21 [Example 59, 3-(4,4-Dimethyl-2-oxo-1,4-dihydro-2H-benzo[d][1,3]oxazin-6-yl)-5-trifluoromethoxy-benzonitrile]"
4,218 to 219 °C,"CC1(C)OC(=O)Nc2ccc(-c3cc(F)cc(F)c3)cc21 [Example 60, 6-(3,5-difluoro-phenyl)-4,4-dimethyl-1,4-dihydrobenzo-[d][1,3]oxazin-2-one]"
5,258 to 260 °C,"CC1(C)OC(=O)Nc2ccc(-c3cc(C(F)(F)F)cc(C(F)(F)F)c3)cc21 [Example 62, 6-(3,5-Bis-trifluoromethyl-phenyl)-4,4-dimethyl-1,4-dihydrobenzo[d][1,3]oxazin-2-one]"
6,254 to 255 °C,"COc1cc(C#N)cc(-c2ccc3c(c2)C(C)(C)OC(=O)N3)c1 [Example 63, 3-(4,4-Dimethyl-2-oxo-1,4-dihydro-2H-benzo[d][1,3]oxazin-6-yl)-5-methoxy-benzonitrile]"
7,123 to 124 °C,"CCOC(OCC)N1C(=O)OC(C)(C)c2cc(-c3cc(F)cc(C#N)c3)ccc21 [Example 66, 3(1-Diethoxymethyl-4,4-dimethyl-2-oxo-1,4-dihydro-2H-benzo[d][1,3]oxazin-6-yl)-5-fluoro-benzonitrile]"
8,169 to 171 °C,"COCN1C(=O)OC(C)(C)c2cc(-c3cc(F)cc(C#N)c3)ccc21 [Example 67, 3-Fluoro-5(1-methoxymethyl-4,4-dimethyl-2-oxo-1,4-dihydro-2H-benzo[d][1,3]oxazin-6-yl)-benzonitrile]"
9,246 to 248 °C,"CC1(C)OC(=O)Nc2c(F)cc(-c3ccc(F)c(Cl)c3)cc21 [Example 71, 6-(3-Chloro-4-fluoro-phenyl)-8-fluoro-4,4-dimethyl-1,4-dihydrobenzo[d][1,3]-oxazin-2-one]"
10,171 to 172 °C,"C#Cc1cccc(-c2ccc3c(c2)C(C)(C)OC(=O)N3)c1 [Example 74, 6-(3-Ethynyl-phenyl)-4,4-dimethyl-1,4dihydro-benzo[d][1,3]-oxazin-2-one]"
11,256 to 257 °C,"CC1(C)OC(=O)Nc2ccc(-c3cc(Cl)cc(C#N)c3)cc21 [Example 78, 3-Chloro-5(4,4-dimethyl-2-oxo-1,4-dihydro-2H-benzo[d][1,3]oxazin-6-yl)-benzonitrile]"
12,223 to 224 °C,"CC1(C)OC(=O)Nc2ccc(-c3cccc(-c4nccs4)c3)cc21 [Example 81, 4,4-Dimethyl-6(3-thiazol-2-yl-phenyl)-1,4-dihydro-benzo[d][1,3]oxazin-2-one]"
13,181 to 182 °C,"COc1cc(F)cc(-c2ccc3c(c2)C(C)(C)OC(=O)N3)c1 [Example 82, 6-(3-Fluoro-5-methoxy-phenyl)-4,4-dimethyl-1,4-dihydro-benzo[d][1,3]oxazin-2-one]"
14,139 to 140 °C,"CC(C)(C)OC(=O)N1C(=O)OC(C)(C)c2cc(-c3cc(F)cc(C#N)c3)ccc21 [Example 86, 6-(3-Cyano-5fluoro-phenyl)-4,4-dimethyl-2oxo-4H-benzo[d][1,3]oxazine-1-carboxylic acid tert-butyl ester]"
15,250 to 251 °C,"CC1(C)OC(=O)Nc2c(F)cc(-c3csc(C#N)c3)cc21 [Example 88, 4-(8-Fluoro-4,4-dimethyl-2-oxo-1,4-dihydro-2H-benzo[d][1,3]oxazin-6-yl)-thiophene-2-carbonitrile]"
16,256 to 257 °C,"CC1(C)OC(=O)Nc2c(F)cc(-c3cc(F)cc(C#N)c3)cc21 [Example 89, 3-Fluoro-5-(8-fluoro-4,4dimethyl-2-oxo-1,4-dihydro-2H-benzo[d][1,3]oxazin-6-yl)-benzonitrile]"
17,255 to 260 °C,"CC1(C)OC(=O)Nc2ccc(-c3cc(C#N)cs3)cc21 [Example 90, 5-(4,4-Dimethyl-2-oxo-1,4-dihydro-2H-benzo[d][1,3]oxazin-6-yl)thiophene-3-carbonitrile]"
18,125 °C,"CC(C)(C)OC(=O)n1c(-c2ccc3c(c2)C(C)(C)OC(=O)N3)ccc1[N+](=O)[O-] [Example 95, 2-(4,4Dimethyl-2-oxo-1,4-dihydro-2H-benzo[d][1,3]oxazin-6-yl)-5-nitro-pyrrole-1-carboxylic acid tert-butyl ester]"
19,202 °C (dec.),"CC1(C)OC(=O)Nc2ccc(-c3ccc[nH]3)cc21 [Example 97, 4,4-Dimethyl-6-(1H-pyrrol-2yl)-1,4-dihydro-benzo[d][1,3]-oxazin-2one]"
20,230 °C,"Cn1cccc1-c1ccc2c(c1)C(C)(C)OC(=O)N2 [Example 98, 4,4-Dimethyl-6-(1-methyl-1H-pyrrol-2-yl)-1,4-dihydro-benzo[d][1,3]oxazin-2-one]"
21,180 to 185 °C,"Cn1c(-c2ccc3c(c2)C(C)(C)OC(=O)N3)ccc1[N+](=O)[O-] [Example 99, 4,4-Dimethyl-6-(1-methyl-5-nitro-1H-pyrrol-2-yl)-1,4-dihydro-benzo [d][1,3]oxazin-2-one]"
